Legend:
[1] = in vivo; cited from earlier work
C. elegans = assay: Toxicity of D2O on C. elegans (lethality, sterility, brood size, gonad development); type: in vivo
Description: C. elegans wild type (e.g., N2) and mutant strains were maintained at 20° C. using nematode growth media (“NGM”) and E. coli strain OP50 as a food source. (See. e.g., Reference 61). Different concentrations of D2O were added to replace H2O in NGM. E. coli OP50 were seeded on D2O-containing NGM plates and grown for 24 hours; worms were then placed at different ages onto those plates for various amount of time. To determine the toxicity of D2O, eggs were prepared using hypochlorite, which made the eggshell porous and permeable to D2O, placed them onto plates containing different concentration of D2O, and counted the number of eggs that could not hatch into normal moving larva. Fourth stage larva were placed onto those plates and counted how many animals became sterile and determined the brood size by counting the total number of hatch larvae from the all the eggs laid by one animal. Three replicates were performed.
(§1) FIGS. 10A-10E show exemplary graphs and images that illustrate toxicity of D2O on cells and C. elegans. […] Three replicates were performed. Mean and s.d. were shown. […] D-labeled OP50 refers to overnight grown culture of E. coli OP50 that were seeded onto the D2O-containing NGM plates 24 hours before the experiment; non-labeled OP50 refers to the experimental setup, in which bacteria were killed by UV after being placed onto the D2O plates and thus was not labeled by deuterium. Each group has 50 worms, and three replicates were made. Mean and s.d. were shown.
50 worms were used for each treatment, and […] replicates were made. Mean and s.d. were shown. […] Scale bar=20 μm.

[2] = mouse, in vivo; cited from earlier work
HeLa cells [3] = assay: CellTiter-Glo Luminescent Cell Viability Assay, cellular toxicity of D2O; type: cell-based; conditions: medium containing D2O
Description: To determine cellular toxicity, HeLa cells and COS-7 cells were first seeded in […] plates at about 500 per cm^2 and grown overnight; the culture was then changed to DMEM containing different concentration (e.g., 0% to 100%) of D2O for about 48 hours. The viability of cell was accessed using the CellTiter-Glo® Luminescent Cell Viability Assay (e.g., Promega) according to the manufacturer's protocol. Cells cultured in pure DMEM medium were used as control and wells containing only medium without cells for background luminescence. Viability was calculated using the background-corrected […] as follows: Viability (%)=Absorbance of experiment well/Absorbance of control well×100%. Three replicates were performed.
as §1

HeLa cells [4] = assay: SRS imaging of lipid droplets in HeLa cells, D-labeled fatty acids versus D2O; type: cell-based; conditions: for CDL signal distribution, lipid droplets: 10 μM D-labeled fatty acid, 6 hours
Description: For live-cell imaging, HeLa and COS-7 cells were seeded onto a glass-bottom dish (e.g., MatTek) and grown for 6 to 8 hours in regular DMEM before the medium was changed to DMEM containing 70% D2O. Cells were then grown for different periods of time before being placed onto the stage for SRS imaging. When treating cells with D-labeled fatty acids, they were first reacted with sodium hydroxide and then coupled to bovine serum albumin (“BSA”) in about 2:1 molar ratio to make 2 mM stock solution. Those stock solutions were then added to the medium to reach the final working concentration (e.g., 10 μM).
FIGS. 4A-4E illustrate the exemplary DO-SRS visualizes de novo lipogenesis in cultured cells and in C. elegans. […] The number of lipid droplets formed in the three conditions were quantified (mean±s.d.; N=5 for D-OA, 15 for D-PA, and 8 for D2O; double asterisks indicate p<0.01 in an unpaired t-test). CHL signal for D2O treatment confirmed the presence of few lipid droplets. […] Live bacteria were labeled by deuterium (element 405), and killed bacteria were not labeled (element 410). […] E. coli OP50 were seeded onto the D2O plates 24 hours before the experiments. Scale bar=20 μm. […] CDL mean intensity was plotted. For all C. elegans experiments, at least 8 animals were imaged for each condition to calculate mean intensity; mean±s.d. of the mean intensity was shown.

mice = assay: Injection of D-PA into mice, SRS imaging of CDL signal; type: in vivo; conditions: intraperitoneal bolus injection of 96 μmol
Description: To inject D-labeled palmitic acids (“D-Pas”) intravenously, mice were anesthetized by isoflurane, and one of the carotid arteries was cannulated for the implantation of a catheter. A syringe filled with 4 mM D-PA dissolved in mammalian Ringer's solution was then connected with the implanted catheter, and D-PA solution was perfused at 0.001 ml/min using a syringe pump (e.g., AL-1000, WPI). The administration lasted for 8 hours every day for three consecutive days before the mice were sacrificed and their organs were harvested, fixed, sectioned, and imaged by SRS. To inject D-PA intraperitoneally, 0.16 ml of 600 mM D-PA emulsion was injected into the lower right side of abdomen according to a previous method. (See, e.g., Reference 64). 17 hours later, the mice were sacrificed and their tissues were collected and imaged.
FIGS. 13A-13C show exemplary images that illustrate imaging de novo biosynthesis in various mouse organs. […] Lipid-rich sebaceous glands and adipose tissues were harvested from adult mice that drank 25% D2O for 8 and 15 days, respectively. Myelinated axon fibers of internal capsule were harvested from P11 mouse pups that were fed on milk produced by mother mice drinking 25% D2O for 6 days before imaging. […] Tissues were harvested, fixed, and imaged 17 hours after the injection. […] Scale bar=[…].

endoplasmic reticulum = conditions: approximately 200 μM; cited from earlier work
HeLa cells [5] = assay: Raman spectra of D2O-treated HeLa cells with protein or lipid synthesis inhibitors; type: cell-based; conditions: 24 hours
Description: For inhibitor treatments, cells were first grown in glass bottom dishes with DMEM made of H2O overnight, and then the medium was changed to 70% D2O DMEM containing either 10 nM fatty acid synthase inhibitor TVB-3166 (e.g., Sigma CAS 1533438-83-3) or 1 μM protein synthesis inhibitor anisomycin (e.g., Sigma CAS 22862-76-6). Cells were then cultured for 24 hours, imaged by SRS microscopy, and fixed by 4% paraformaldehyde for spontaneous Raman spectroscopy.
Cells grown in DMEM made of 100% H2O were used as control.

For `[2H]O[2H]` [D2O, deuterium oxide], the adverse symptoms [1] is given as “does not cause any adverse symptoms”, the body water enrichment [1] is given as “approximately 2%” and the gonad development (C. elegans; 60% D2O, animals developed from L4 to adults on D2O plates) is given as “gonad developed normally”. For the same compound, the gonad development (C. elegans; 80% D2O) was “gonad development was disrupted”, the “proliferation of the germ cells” value (C. elegans; 80% D2O) was “appeared to be affected” and the “D2O concentration with no observable toxicity and no effect on cell division” value (C. elegans; C. elegans) was < 60%. For the same compound, the embryo formation (C. elegans; in vivo) was “normal embryos were formed”, the “embryo formation in the uterus” value (C. elegans; in vivo) was “no embryos were formed” and the “D2O enrichment that did not cause any effect on physiological processes” value [2] was “below 20%”. For the same compound, the “D2O concentration above which toxicity arises” value (HeLa cells [3]) was “exceeded 80%” and the “lipid droplets in CDL and CHL channels” value (HeLa cells [4]; 70% D2O, 24 hours) was “very few lipid droplets”.
In the case of `[2H]OC(=O)C([2H])([2H])C([2H])([2H])C([2H])([2H])C([2H])([2H])C([2H])([2H])C([2H])([2H])C([2H])([2H])/C([2H])=C(/[2H])C([2H])([2H])C([2H])([2H])C([2H])([2H])C([2H])([2H])C([2H])([2H])C([2H])([2H])C([2H])([2H])C([2H])([2H])[2H]` [D-OA, D34-oleic acids], the “number of lipid droplets, comparison” value (HeLa cells [4]; 10 μM) is reported as “remarkably more lipid droplets than D-PA” and the “CDL signal distribution, lipid droplets” value (HeLa cells [4]) is reported as “accumulation of CDL signal in lipid droplets”.
For `[2H]C([2H])([2H])C([2H])([2H])C([2H])([2H])C([2H])([2H])C([2H])([2H])C([2H])([2H])C([2H])([2H])C([2H])([2H])C([2H])([2H])C([2H])([2H])C([2H])([2H])C([2H])([2H])C([2H])([2H])C([2H])([2H])C([2H])([2H])C(=O)O` [D-PA, D31-palmitic acids], the “CDL signal in pancreas” value (mice) was “accumulation of CDL signal in the ER membrane of pancreatic cells” and the “CDL signal distribution, lipid droplets” value (HeLa cells [4]) was “accumulation of CDL signal in lipid droplets”.
In the case of `CCCCCCCC/C=C\CCCCCCCC(=O)O` [OA, oleic acid], the “effect on endoplasmic reticulum membrane” value (endoplasmic reticulum) is given as “not”.
For `CCCCCCCCCCCCCCCC(=O)O` [PA, palmitic acid], the “effect on endoplasmic reticulum membrane” value (endoplasmic reticulum) is given as “drove the formation of solid-like microdomain and membrane phase separation in endoplasmic reticulum”.
In the case of `COc1ccc(C[C@H]2NC[C@H](O)[C@H]2OC(C)=O)cc1` [anisomycin], the “peak of remaining C-D Raman signal” value (HeLa cells [5]; 1 μM anisomycin, 70% D2O DMEM, remaining D-labeled lipid signal) is reported as 2135 cm⁻¹.
With TVB-3166 the “peak of remaining C-D Raman signal” value (HeLa cells [5]; 10 nM TVB-3166, 70% D2O DMEM, remaining D-labeled protein signal) was 2185 cm⁻¹.
